Molecules are shown by their SMILES.

1 compound from US6469127B1, “Polycarbonate resin having low tendency of releasing environmental endocrine disruptors” (Space Environmental Technology Company, Inc,, priority 1999, dated 2002) can be followed below.

The target of this assay is T1, Estrogen Receptor (Homo sapiens, UniProt P03372).
T1 sequence (P03372 1-595): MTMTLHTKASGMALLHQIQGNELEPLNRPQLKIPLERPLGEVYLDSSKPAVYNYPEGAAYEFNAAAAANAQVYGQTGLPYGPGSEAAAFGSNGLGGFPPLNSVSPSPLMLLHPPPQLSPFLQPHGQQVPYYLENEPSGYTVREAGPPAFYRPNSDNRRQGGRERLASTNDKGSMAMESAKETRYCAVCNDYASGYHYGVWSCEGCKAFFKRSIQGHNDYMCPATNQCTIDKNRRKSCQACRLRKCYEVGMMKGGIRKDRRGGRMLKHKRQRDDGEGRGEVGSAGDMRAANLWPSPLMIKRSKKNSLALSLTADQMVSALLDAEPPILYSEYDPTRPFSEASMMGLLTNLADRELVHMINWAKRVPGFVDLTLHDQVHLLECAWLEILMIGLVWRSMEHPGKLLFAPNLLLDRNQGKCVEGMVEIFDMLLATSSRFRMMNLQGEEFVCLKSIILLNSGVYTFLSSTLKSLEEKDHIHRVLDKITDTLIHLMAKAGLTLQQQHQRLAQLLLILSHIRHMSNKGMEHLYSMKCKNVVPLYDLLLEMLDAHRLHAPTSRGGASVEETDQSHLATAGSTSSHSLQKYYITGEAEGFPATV
The assay is described as follows: Tendency to link to estrogen receptor (IC50 of bisphenols and reference compounds, Table 1). Type of assay: binding. The following applies: concentration required to substitute 50% of genuine hormone linked to receptor.

For `CCCCCCCCCc1ccc(O)cc1` [4-Nonylphenol], 3.9 µM corresponded to half-maximal inhibition (IC50).

By IC50 is commonly meant the midpoint of a concentration-inhibition curve. A low value points to higher potency.
